Data as given in patent US6340694B1, “Diarylbenzopyran derivatives as cyclooxygenase-2 inhibitors” (Pacific Corporation, priority 1998, dated 2002).

Tests used:
COX-2 = target: T1, COX-2 (Mus musculus, UniProt Q05769); assay: Evaluation of COX-2's inhibition efficacy (PGE2 radioimmuno assay, LPS-induced, aspirin-pretreated peritoneal macrophages); format: cell-based, C57BL/6 mouse; details: for inhibition at 1 µg/mL: 1 μg/ml; for inhibition at 10 µg/mL: 10 μg/ml; for inhibition at 0.1 µg/mL: 0.1 μg/ml
T1 construct: endogenous in cells; host or cells: peritoneal macrophages of C57BL/6 mouse, aspirin-pretreated, LPS-induced
T1 sequence (Q05769 18-604): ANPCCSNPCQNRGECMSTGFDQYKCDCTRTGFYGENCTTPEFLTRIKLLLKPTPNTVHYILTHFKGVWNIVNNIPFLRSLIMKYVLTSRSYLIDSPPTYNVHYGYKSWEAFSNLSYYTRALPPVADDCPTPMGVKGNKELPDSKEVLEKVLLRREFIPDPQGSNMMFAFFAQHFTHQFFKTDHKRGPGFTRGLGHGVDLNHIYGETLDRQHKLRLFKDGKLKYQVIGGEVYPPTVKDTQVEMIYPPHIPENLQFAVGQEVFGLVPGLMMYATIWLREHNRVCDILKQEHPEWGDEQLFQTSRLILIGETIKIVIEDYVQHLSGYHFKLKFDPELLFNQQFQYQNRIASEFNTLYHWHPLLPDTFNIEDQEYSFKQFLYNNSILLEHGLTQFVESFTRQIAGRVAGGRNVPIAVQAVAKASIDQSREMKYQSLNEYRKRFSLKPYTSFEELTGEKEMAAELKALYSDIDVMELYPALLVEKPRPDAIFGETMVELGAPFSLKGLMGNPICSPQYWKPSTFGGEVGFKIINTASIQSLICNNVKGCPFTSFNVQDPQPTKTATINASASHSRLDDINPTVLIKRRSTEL
Description: Regarding the compounds in the above Examples and indomethacin, the inhibition efficacy of COX-2 and COX-1 are being measured by the following two methods. […] Evaluation of COX-2's Inhibition Efficacy (J. Pharmacol. Exp. […] After cleaning C57BL/6 mouse's abdomen by 70% EtOH, the skin of mouse's abdomen was eliminated cautiously not to harm peritomeum and 5 ml of cold PBS was poured into the abdominal cavity and in certain times later macrophage-bleeding abdominal-liquid was collected by syringe. […] After putting 1 ml cell suspension having cell number of 1×10^6 cells/mu into each 24-well microtiter plates, macrophages were adhered to the bottom of plate by culturing in the condition of 5% CO2/95% O2, at a temperature of 37° C. for 2 hours. Other cells not being adhered to were eliminated by washing two times with PBS. The purity of macrophages obtained through this process was identified by differential counting. […] After inducing COX-2 by LPS, the cell culture medium was eliminated and macrophages was washed two times with PBS. And 1 ml of RRPI-1640 badge was added to each well again and after treating them with sample with appropriate concentration, they were cultured at a temperature of 37i É for 10 minutes. And then treated them with arachidonic acid to make their final concentration as 10 μM and cultured them additional 10 minutes, all the supernatant liquid of reaction was obtained. The amount of PGE2 produced in the supernatant liquid of reaction was determined by the PGE2 radioimmuno assay.

COX-1 = target: T2, COX-1 (Mus musculus, UniProt P22437); assay: Evaluation of COX-1's inhibition efficacy (macrophages without aspirin and LPS pre-treatment); format: cell-based, C57BL/6 mouse; details: for inhibition at 10 µg/mL: 10 μg/ml; for inhibition at 1 µg/mL: 1 μg/ml
T2 construct: there is no pre-treatment of aspirin and LPS in the adhesion of macrophage; endogenous in cells; host or cells: peritoneal macrophages of C57BL/6 mouse, without aspirin and LPS pre-treatment
T2 sequence (P22437 27-602): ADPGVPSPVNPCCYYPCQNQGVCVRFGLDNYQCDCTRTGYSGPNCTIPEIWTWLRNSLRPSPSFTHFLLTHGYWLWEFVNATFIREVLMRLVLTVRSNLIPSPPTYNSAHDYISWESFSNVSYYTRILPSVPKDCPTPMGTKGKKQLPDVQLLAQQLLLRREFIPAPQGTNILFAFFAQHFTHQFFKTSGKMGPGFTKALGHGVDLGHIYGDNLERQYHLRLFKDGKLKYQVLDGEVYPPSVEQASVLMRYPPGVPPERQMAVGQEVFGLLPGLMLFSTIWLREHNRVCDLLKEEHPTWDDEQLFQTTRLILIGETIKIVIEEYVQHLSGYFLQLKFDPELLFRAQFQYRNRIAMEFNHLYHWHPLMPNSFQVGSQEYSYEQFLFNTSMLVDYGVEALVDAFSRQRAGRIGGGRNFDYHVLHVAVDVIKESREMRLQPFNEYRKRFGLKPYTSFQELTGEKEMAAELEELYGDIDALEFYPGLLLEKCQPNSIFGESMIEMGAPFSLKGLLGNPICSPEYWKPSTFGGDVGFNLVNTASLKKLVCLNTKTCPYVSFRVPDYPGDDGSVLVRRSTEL
Description: Regarding the compounds in the above Examples and indomethacin, the inhibition efficacy of COX-2 and COX-1 are being measured by the following two methods.
After cleaning C57BL/6 mouse's abdomen by 70% EtOH, the skin of mouse's abdomen was eliminated cautiously not to harm peritomeum and 5 ml of cold PBS was poured into the abdominal cavity and in certain times later macrophage-bleeding abdominal-liquid was collected by syringe. By adding RPMI-1640 badge containing penicillin(100 unit/mt) and streptomycin([…]) to cell pellet obtained by centrifugation of collected liquid about 5 minutes in 1500 rpm, it was disperesed and also COX-1 existing in the cell was inactivated by treating with 500 μM aspirin. After putting 1 ml cell suspension having cell number of 1×10^6 cells/mu into each 24-well microtiter plates, macrophages were adhered to the bottom of plate by culturing in the condition of 5% CO2/95% O2, at a temperature of 37° C. for 2 hours. Other cells not being adhered to were eliminated by washing two times with PBS. The purity of macrophages obtained through this process was identified by differential counting. After adding RPMI-1640 badge(normally 5×10^5 cell/ml) containing 3% right fetal blood serum to macrophage and treating it with LPS(lipopolysaccharide) to make final concentration as 10 μg/ml, it was cultured in the condition of 5% CO2, at a temperature of 37° C. for 16 hours. After inducing COX-2 by LPS, the cell culture medium was eliminated and macrophages was washed two times with PBS. And 1 ml of RRPI-1640 badge was added to each well again and after treating them with sample with appropriate concentration, they were cultured at a temperature of 37i É for 10 minutes. And then treated them with arachidonic acid to make their final concentration as 10 μM and cultured them additional 10 minutes, all the supernatant liquid of reaction was obtained. The amount of PGE2 produced in the supernatant liquid of reaction was determined by the PGE2 radioimmuno assay. The 100% COX-2's activation is referenced by the difference of the amount of PGE2 produced in the supernatant liquid of reaction between with 10 μM arachidonic acid treatment and without 10 μM arachidonic acid treatment.
2. Evaluation of COX-1's Inhibition Efficacy
Following the same procedure as the above evaluation of COX-2's inhibition efficacy, but there is no pre-treatment of aspirin and LPS in the adhesion of macrophage.

inhibition at 1 µg/mL (COX-2) [%]	inhibition at 10 µg/mL (COX-2) [%]	inhibition at 10 µg/mL (COX-1) [%]	melting point [°C]	inhibition at 0.1 µg/mL (COX-2) [%]	inhibition at 1 µg/mL (COX-1) [%]	Structure (SMILES)
51	86	18	226 to 227	–	–	COc1ccc(-c2c(-c3ccc(S(C)(=O)=O)cc3)oc3ccccc3c2=O)cn1 [Example 18, 3-(2-Methoxy-5-pyridinyl)-2-(4-(methylsulfonyl)phenyl)-4H-1-benzopyran-4-one]
18	35	11	197 to 199	–	–	CS(=O)(=O)c1ccc(-c2oc3ccccc3c(=O)c2-c2cncc(Br)c2)cc1 [Example 19, 3-(5-Bromo-3-pyridinyl)-2-(4-(methylsulfonyl)phenyl)-4H-1-benzopyran-4-one]
< 5	85	< 5	195 to 196	–	–	Cc1ccc(-c2c(-c3ccc(S(C)(=O)=O)cc3)oc3ccccc3c2=O)cn1 [Example 20, 3-(2-Methyl-5-pyridinyl)-2-(4-(methylsulfonyl)phenyl)-4H-1-benzopyran-4-one]
35	55	< 5	215 to 217	–	–	CS(=O)(=O)c1ccc(-c2oc3ccccc3c(=O)c2-c2ccc(C(F)(F)F)nc2)cc1 [Example 21, 2-(4-(Methylsulfonyl)phenyl)-3-(2-trifluoromethyl-5-pyridinyl)-4H-1-benzopyran-4-one]
29	69	< 5	196 to 198	6	–	CS(=O)(=O)c1ccc(-c2oc3ccccc3c(=S)c2-c2cccc(Cl)c2)cc1 [Example 40, 3-(3-Chlorophenyl)-2-(4-(methylsulfonyl)phenyl)-4H-1-benzopyran-4-thione]
36	96	< 5	234	< 5	–	Cc1ccccc1-c1c(-c2ccc(S(C)(=O)=O)cc2)oc2ccccc2c1=S [Example 41, 3-(2-Methylphenyl)-2-(4-(methylsulfonyl)phenyl)-4H-1-benzopyran-4-thione]
100	–	48	224 to 226	63	36	NS(=O)(=O)c1ccc(-c2oc3ccc(F)cc3c(=O)c2-c2ccc(F)cc2)cc1 [Example 48, 2-(4-(Aminosulfonyl)phenyl)-6-fluoro-3-(4-fluorophenyl)-4H-1-benzopyran-4-one]
83	100	6	257 to 258	56	–	NS(=O)(=O)c1ccc(-c2oc3ccc(F)cc3c(=O)c2-c2cccc(F)c2)cc1 [Example 51, 2-(4-(Aminosulfonyl)phenyl)-6-fluoro-3-(3-fluorophenyl)-4H-1-benzopyran-4-one]
96	99	67	267 to 268	73	62	NS(=O)(=O)c1ccc(-c2oc3ccccc3c(=O)c2-c2ccc(F)cc2)cc1 [Example 52, 2-(4-(Aminosulfonyl)phenyl)-3-(4-fluorophenyl)-4H-1-benzopyran-4-one]
90	92	61	218 to 220	76	52	NS(=O)(=O)c1ccc(-c2oc3ccccc3c(=O)c2-c2ccccc2)cc1 [Example 53, 2-(4-(Aminosulfonyl)phenyl)-3-phenyl-4H-1-benzopyran-4-one]
90	100	84	252 to 254	–	66	COc1ccc(-c2c(-c3ccc(S(N)(=O)=O)cc3)oc3ccccc3c2=O)cc1 [Example 55, 2-(4-(Aminosulfonyl)phenyl)-3-(4-methoxyphenyl)-4H-1-benzopyran-4-one]
96	–	75	215 to 217	48	–	NS(=O)(=O)c1ccc(-c2oc3ccccc3c(=O)c2-c2ccc(Cl)c(Cl)c2)cc1 [Example 57, 2-(4-(Aminosulfonyl)phenyl)-3-(3,4-dichlorophenyl)-4H-1-benzopyran-4-one]
63	96	60	215 to 217	–	34	NS(=O)(=O)c1ccc(-c2oc3ccccc3c(=O)c2-c2ccccc2F)cc1 [Example 58, 2-(4-(Aminosulfonyl)phenyl)-3-(2-fluorophenyl)-4H-1-benzopyran-4-one]
